# Results as given in patent publication US20260034094A1, “COMPOSITIONS AND METHODS FOR INDUCING FERROPTOSIS” (Kojin Therapeutics, Inc., priority 2022, published 2026).
# Test system: RKN cells
# Test: RKN cell profiling assay (cell viability, CellTiter-Glo)
# Assay type: cell-based
# Conditions: 96 h, 96 h exposure, read-out: Cell Killing EC50
# Procedure: RKN cells were suspended in assay medium (F-12 medium supplemented with 10% FBS and penicillin/streptomycin) and seeded at 1,000 cells per well (30 μL total volume) in opaque white 384-well plates (Corning). Cells were allowed to adhere for 24 h at 37° C. (95% humidity, 5% CO2) and then exposed to compounds disclosed herein for 72 h, or in the present case, 96 h. DMSO stock solutions of compounds were added to cells using a D300e Digital Dispenser (Tecan). The final DMSO concentration in each well was normalized to 0.5% (v/v) after compound treatment. Cell viability was measured using CellTiter-Glo (Promega). After incubation for 15 min at room temperature, luminescence was measured using a PHERAstar FSX microplate reader (BMG Labtech). Ferroptosis rescue experiments were performed as described previously using cells treated with ferrostatin-1 (fer-1, 1.5 μM) when seeding assay plates. Dose-response data were analyzed to determine EC50 values with GraphPad Prism 9 software using a four-parameter logistic equation or CDD Vault (Collaborative Drug Discovery) using the Levenberg-Marquardt algorithm.
row,Compound,EC50
1,N=S(=O)(CC[C@H](N)C(=O)O)CCN1CCCC1=O (some centres unmarked) [Compound 145],≥ 1000 µM
2,CC(C)(CCS(=N)(=O)CC[C@H](N)C(=O)O)Cc1ccccc1 (some centres unmarked) [Compound 65],≥ 1000 µM
3,COCCOC(=O)[C@@H](N)CCS(=N)(=O)CCCC(F)(F)F (some centres unmarked) [Compound 83],< 1000 µM
4,"CCCCS(=N)(=O)CC[C@H](N)c1nnn[nH]1 (stereo partly drawn) [Compound 200, (1S)-3-(butylsulfonimidoyl)-1-(1H-tetrazol-5-yl)propan-1-amine]",≥ 1000 µM
5,CCCCS(=N)(=O)CC[C@H](N)C(=O)NC (some centres unmarked) [Compound 107],≥ 1000 µM
6,CC(C)(C)CCS(=N)(=O)CC[C@H](N)C(=O)OC(C)(C)C (some centres unmarked) [Compound 96],≥ 1000 µM

# Same assay, conditions: cell viability, read-out: Cell Killing EC50
row,Compound,EC50
1,N=S(=O)(CC[C@H](N)C(=O)O)CCC(O)(c1nc2ccccc2o1)C(F)(F)F (some centres unmarked) [compound 502],< 1000 µM
2,N[C@@H](CCS(=O)(=O)CCC(O)(c1ccon1)C(F)(F)F)C(=O)O (some centres unmarked) [Compound 369],≥ 1000 µM
3,Cc1ccc(-c2ccc(C(O)(CCS(=N)(=O)CC[C@H](N)C(=O)O)C(F)(F)F)cc2)c(Cl)c1 (some centres unmarked) [Compound 432],< 1000 µM
4,N=S(=O)(CC[C@H](N)C(=O)O)CCC(O)([C@H]1CC[C@H](c2ccc(Cl)cc2Cl)CC1)C(F)(F)F (some centres unmarked) [Compound 340],< 1000 µM
5,N=S(=O)(CCC(c1ccc(-c2ccccc2F)cc1)C(F)(F)F)CC[C@H](N)C(=O)O (some centres unmarked) [Compound 217],< 1000 µM
6,C=C(C)c1ccc(C(CCS(=N)(=O)CC[C@H](N)C(=O)O)C(F)(F)F)cc1 (some centres unmarked) [Compound 262],< 1000 µM
7,Cc1ccc(-c2ccc(C(CCS(=N)(=O)CC[C@H](N)C(=O)O)C(F)(F)F)cc2)cn1 (some centres unmarked) [Compound 246],≥ 1000 µM
8,N=S(=O)(CC[C@H](N)C(=O)O)CCC(O)(c1ccc(-c2ccc(Cl)cc2Cl)cn1)C(F)(F)F (some centres unmarked) [Compound 466],< 1000 µM
9,N=S(=O)(CC[C@H](N)C(=O)O)CCC(O)(c1cnc(-c2ccc(Cl)cc2Cl)cn1)C(F)(F)F (some centres unmarked) [Compound 367],< 1000 µM
10,COc1ccccc1-c1ccc(C(CCS(=N)(=O)CC[C@H](N)C(=O)O)C(F)(F)F)cc1 (some centres unmarked) [Compound 264],< 1000 µM
11,N=S(=O)(CCC(c1ccc(Oc2ccc(Cl)cc2Cl)cc1)C(F)(F)F)CC[C@H](N)C(=O)O (some centres unmarked) [Compound 318],< 1000 µM
12,"N=S(=O)(CCC(c1ccc(-c2ccccc2Cl)cc1)C(F)(F)F)CC[C@H](N)C(=O)O (single isomer, unassigned) [Compound 219]",≥ 1000 µM
13,N=S(=O)(CCC(c1ccccc1O)C(F)(F)F)CC[C@H](N)C(=O)O (some centres unmarked) [Compound 397],< 1000 µM
14,N=S(=O)(CCC(c1ccc(-c2ccc3cn[nH]c3c2)cc1)C(F)(F)F)CC[C@H](N)C(=O)O (some centres unmarked) [Compound 255],≥ 1000 µM
15,N=S(=O)(CC[C@H](N)C(=O)O)CCC(O)(c1ccc(C2CCCCC2)cn1)C(F)(F)F (some centres unmarked) [Compound 476],< 1000 µM
16,Cc1ccc(-c2cccc(C(CCS(=N)(=O)CC[C@H](N)C(=O)O)C(F)(F)F)c2)cc1 (some centres unmarked) [Compound 285],≥ 1000 µM
17,N=S(=O)(CCC(c1ccc(C2CC2)cc1)C(F)(F)F)CC[C@H](N)C(=O)O (some centres unmarked) [Compound 225],< 1000 µM
18,N=S(=O)(CC[C@H](N)C(=O)O)CCC(O)(c1ccc(-c2ccc(Cl)cc2)cc1)C(F)(F)F (some centres unmarked) [Compound 431],< 1000 µM
19,Cc1cccc(-c2cccc(C(CCS(=N)(=O)CC[C@H](N)C(=O)O)C(F)(F)F)c2)c1 (some centres unmarked) [Compound 286],≥ 1000 µM
20,N=S(=O)(CCC(c1ccc(-c2ccccc2O)cc1)C(F)(F)F)CC[C@H](N)C(=O)O (some centres unmarked) [Compound 235],< 1000 µM
21,N=S(=O)(CCC(c1ccc(-c2ccc(Cl)cc2O)cc1)C(F)(F)F)CC[C@H](N)C(=O)O (some centres unmarked) [Compound 282],< 1000 µM
22,CC(C)(O)c1ccc(C(CCS(=N)(=O)CC[C@H](N)C(=O)O)C(F)(F)F)cc1 (some centres unmarked) [Compound 263],≥ 1000 µM
23,N=S(=O)(CC[C@H](N)C(=O)O)CCC(O)(c1cccc(-c2ccccc2)c1)C(F)(F)F (some centres unmarked) [Compound 435],≥ 1000 µM
24,N=S(=O)(CCC(c1ccc2[nH]nnc2c1)C(F)(F)F)CC[C@H](N)C(=O)O (some centres unmarked) [Compound 393],≥ 1000 µM

row,Compound,EC50
1,C=Cc1ccc(C(CCS(=N)(=O)CC[C@H](N)C(=O)O)C(F)(F)F)cc1 (some centres unmarked) [Compound 261],< 1000 µM
2,Cn1cc(-c2ccc(C(O)(CCS(=N)(=O)CC[C@H](N)C(=O)O)C(F)(F)F)nc2)cn1 (some centres unmarked) [Compound 472],≥ 1000 µM
3,N=S(=O)(CC[C@H](N)C(=O)O)CCC(O)(c1ccc2ccccc2n1)C(F)(F)F (some centres unmarked) [Compound 373],< 1000 µM
4,N=S(=O)(CCC(c1ccc(-c2cnc(N)nc2)cc1)C(F)(F)F)CC[C@H](N)C(=O)O (some centres unmarked) [Compound 251],≥ 1000 µM
5,"N=[S@](=O)(CC[C@H](N)C(=O)O)CCC(O)(c1ccccc1)C(F)(F)F (single isomer, unassigned) [Compound 346]",≥ 1000 µM
6,N=S(=O)(CCC(c1ccc(-c2ccccc2Cl)cc1)C(F)(F)F)CC[C@H](N)C(=O)O (some centres unmarked) [Compound 220],< 1000 µM
7,N=S(=O)(CCC(c1ccc(S(=O)(=O)Cc2ccccc2)cc1)C(F)(F)F)CC[C@H](N)C(=O)O (some centres unmarked) [Compound 291],≥ 1000 µM
8,N=S(=O)(CCC(c1ccc2[nH]cnc2c1)C(F)(F)F)CC[C@H](N)C(=O)O (some centres unmarked) [Compound 399],≥ 1000 µM
9,N=S(=O)(CCC(c1ccc(-c2ccsc2)cc1)C(F)(F)F)CC[C@H](N)C(=O)O (some centres unmarked) [Compound 257],< 1000 µM
10,N=S(=O)(CC[C@H](N)C(=O)O)CCC(O)(c1cc(-c2ccc(Cl)cc2Cl)cs1)C(F)(F)F (some centres unmarked) [Compound 337],< 1000 µM
11,CC(C)(O)c1cccc(-c2ccc(C(CCS(=N)(=O)CC[C@H](N)C(=O)O)C(F)(F)F)cc2)c1 (some centres unmarked) [Compound 241],≥ 1000 µM
12,N=S(=O)(CCC(c1ccc(-c2ccccc2C(F)(F)F)cc1)C(F)(F)F)CC[C@H](N)C(=O)O (some centres unmarked) [Compound 267],< 1000 µM
13,N=S(=O)(CCC(c1ccc(-c2ccc(Cl)cc2Cl)cn1)C(F)(F)F)CC[C@H](N)C(=O)O (some centres unmarked) [Compound 317],< 1000 µM
14,COc1ccc(-c2ccc(C(CCS(=N)(=O)CC[C@H](N)C(=O)O)C(F)(F)F)cc2)c(Cl)c1 (some centres unmarked) [Compound 268],< 1000 µM
15,N=S(=O)(CCC(c1ccc(-c2cccc(C(N)=O)c2)cc1)C(F)(F)F)CC[C@H](N)C(=O)O (some centres unmarked) [Compound 229],≥ 1000 µM
16,Cc1cc(Cl)ccc1-c1cnc(C(O)(CCS(=N)(=O)CC[C@H](N)C(=O)O)C(F)(F)F)nc1 (some centres unmarked) [Compound 474],< 1000 µM
17,Cc1cc(F)ccc1-c1ccc(C(CCS(=N)(=O)CC[C@H](N)C(=O)O)C(F)(F)F)cc1 (some centres unmarked) [Compound 278],< 1000 µM
18,CNC(=O)c1cccc(-c2ccc(C(CCS(=N)(=O)CC[C@H](N)C(=O)O)C(F)(F)F)cc2)c1 (some centres unmarked) [Compound 230],≥ 1000 µM
19,Cc1cc(Cl)ccc1-c1ccc(C(CCS(=N)(=O)CC[C@H](N)C(=O)O)C(F)(F)F)cc1 (some centres unmarked) [Compound 275],< 1000 µM
20,Cc1ccccc1-c1ccc(C(CCS(=N)(=O)CC[C@H](N)C(=O)O)C(F)(F)F)cc1 (some centres unmarked) [Compound 265],< 1000 µM
21,N=S(=O)(CC[C@H](N)C(=O)O)CCC(O)(c1ccc(OC2CCCCC2)cc1)C(F)(F)F (some centres unmarked) [Compound 339],< 1000 µM
22,N=S(=O)(CCC(c1cccc(C#Cc2ccccc2)c1)C(F)(F)F)CC[C@H](N)C(=O)O (some centres unmarked) [Compound 273],≥ 1000 µM
23,N=S(=O)(CC[C@H](N)C(=O)O)CCC(O)([C@H]1CC[C@@H](c2ccc(Cl)cc2Cl)CC1)C(F)(F)F (some centres unmarked) [Compound 341],< 1000 µM
24,N=S(=O)(CC[C@H](N)C(=O)O)CCC1(c2ccc(Oc3ccc(Cl)cc3Cl)cc2)CCC1 (some centres unmarked) [Compound 403],≥ 1000 µM

# Target: human recombinant GCL (Homo sapiens (Human), UniProt P48506)
# Sequence (P48506 whole entry): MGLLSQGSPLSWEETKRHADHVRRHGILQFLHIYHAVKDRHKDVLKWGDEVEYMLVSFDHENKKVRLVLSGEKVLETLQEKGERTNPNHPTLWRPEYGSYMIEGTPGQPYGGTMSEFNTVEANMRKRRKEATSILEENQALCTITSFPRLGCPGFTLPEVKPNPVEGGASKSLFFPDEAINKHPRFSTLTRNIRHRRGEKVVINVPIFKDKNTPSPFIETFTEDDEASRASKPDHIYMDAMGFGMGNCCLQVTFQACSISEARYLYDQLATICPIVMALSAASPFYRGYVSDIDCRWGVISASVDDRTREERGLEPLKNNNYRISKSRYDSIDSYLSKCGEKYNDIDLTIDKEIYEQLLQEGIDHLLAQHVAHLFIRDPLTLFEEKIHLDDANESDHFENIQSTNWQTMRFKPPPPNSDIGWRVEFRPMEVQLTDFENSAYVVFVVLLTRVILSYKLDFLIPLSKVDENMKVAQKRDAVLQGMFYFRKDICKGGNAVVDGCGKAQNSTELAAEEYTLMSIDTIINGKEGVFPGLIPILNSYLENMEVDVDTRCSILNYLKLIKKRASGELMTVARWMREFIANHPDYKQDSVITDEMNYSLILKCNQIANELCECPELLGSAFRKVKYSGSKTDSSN
# Test: GCL enzyme profiling assay (ADP-Glo luminescence)
# Assay type: biochemical
# Conditions: human recombinant GCL 5 nM, 1 h preincubation with ATP; read-out: GCL IC50
# Procedure: The GCL enzyme assay was run in 50 mM HEPES, pH 7.5, containing 150 mM NaCl, 30 mM MgCl2, 0.5 mM EDTA, 1 mM DTT, 0.1 mg/mL BSA, and 0.02% or in the present case 0.2% F-127 in a total assay volume of 10 μL or 10 mL. Compound in pure DMSO was stamped in assay plates (Greiner black 384-well) or appropriate containers using a D300e digital dispenser (TECAN) and the final DMSO concentration was normalized to 1%. A 5 mL, or in the present case, 5 μL mixture of human recombinant GCL (final concentration: 5 nM) and ATP (final concentration: 0.6 mM) was added and the solution was incubated at room temperature (22° C.) for 1 h. The GCL enzyme reaction was initiated by addition of a 5 μL mixture of mono g-glutamate or in the present example, monosodium glutamate (final concentration: 1 mM) and a-aminobutyrate or α-aminobutyrate (final concentration: 1.2 mM). The reaction was stopped after 1 h or in the present case, 2 h by addition of 5 mL, or in the present case, 5 μL ADP GLO Reagent (Promega). The resulting solution was incubated for 2 h at room temperature. This was then followed by addition of 5 mL, or in the present case, 5 μL ADP GLO Detection. After incubation at room temperature for 30 min, the plates were read on a plate reader (PheraStar) using a luminescence protocol to quantify the GCL enzyme activity from each reaction solution. The data was analyzed using a four-parameter logistic equation to calculate IC50.
row,Compound,IC50
1,N=S(=O)(CC[C@H](N)C(=O)O)CCN1CCCC1=O (some centres unmarked) [Compound 145],> 2000 µM
2,CC(C)(CCS(=N)(=O)CC[C@H](N)C(=O)O)Cc1ccccc1 (some centres unmarked) [Compound 65],≤ 20 µM
3,COCCOC(=O)[C@@H](N)CCS(=N)(=O)CCCC(F)(F)F (some centres unmarked) [Compound 83],20 to 2000 µM
4,"N=S(=O)(CCCc1cn[nH]c1)CC[C@H](N)C(=O)O (stereo partly drawn) [Compound 50, (2S)-4-(3-(1H-pyrazol-4-yl)propylsulfonimidoyl)-2-aminobutanoic acid]",20 to 2000 µM
5,Cc1ccccc1OCCS(=N)(=O)CC[C@H](N)C(=O)O (some centres unmarked) [Compound 14],20 to 2000 µM
6,N=S(=O)(CC[C@H](N)C(=O)O)CCn1ccnc1 (some centres unmarked) [Compound 7],> 2000 µM
7,CC(COC(=O)c1ccccc1)OC(=O)[C@@H](N)CCS(=N)(=O)CCC(C)(C)C (some centres unmarked) [Compound 98],20 to 2000 µM

# Same assay, conditions: human recombinant GCL, ADP-Glo; read-out: GCL IC50
row,Compound,IC50
1,N=S(=O)(CC[C@H](N)C(=O)O)CCC(O)(c1nc2ccccc2o1)C(F)(F)F (some centres unmarked) [compound 502],≤ 20 µM
2,N[C@@H](CCS(=O)(=O)CCC(O)(c1ccon1)C(F)(F)F)C(=O)O (some centres unmarked) [Compound 369],20 to 2000 µM
3,C#CCNC(=O)[C@@H](N)CCS(=N)(=O)CCCC (some centres unmarked) [compound 493],> 2000 µM
4,N=S(=O)(CCC1CCO1)CC[C@H](N)C(=O)O (some centres unmarked) [Compound 304],20 to 2000 µM
